Test results: patent publication US20120142621A1 (priority 2010, published 2012)

Assays:
[1] = tested on: IL-8; experiment: Cytokine responses in vitro: IL-8; type: cell-based; conditions: compared with the natural mixture responses, FIG. 5
[2] = Dosage finding after CLP, tail vein IV; type: in vivo; conditions: 24 mg/kg IV in 50% ethanol-PBS; possibly due to ethanol concentration
Protocol: Dosage To determine the optimum dose that can be administered to the rats, 3 different doses of Glyco 23, 6 mg/kg, 12 mg/kg and 24 mg/kg of rat body weight (in 50% ethanol-PBS) was administered using tail vein IV to 9 rats following the Cecal Ligation and Puncture (CLP). Control rats (n=3) were injected with 0.5 ml of PBS. […] Rats that received […] and 12 mg/kg doses survived after 24 hours. Blood was obtained before they were sacrificed the next day.

[3] = tested on: standard bacterial isolates; experiment: Antibiotic activity, broth microdilution method; type: cell-based; conditions: clinically relevant concentrations
[4] = tested on: IL-1β; experiment: RNase Protection Assay, splenocyte mRNA of CLP-septic rats: IL-1β; type: in vivo, rat; conditions: 5 mg/kg; splenocytes at 6 hrs; percent control (CLP+vehicle) +/- SEM; P<0.05
Description: (§1) Data are expressed as percent control (CLP+vehicle)+/−SEM. Treatment groups were significant (p<0.05) compared with control using student's T test. CLP=cecal ligation and puncture; SL=sophorolipid

[5] = tested on: septic peritonitis via CLP; experiment: Survival, WBC and blood culture at 3 hours and 24 hours post insult (CLP); type: in vivo, rat; conditions: 5 mg/kg IV at end of surgery, n=6/group; for Survival 24 Hs. post insult: % printed only over the 3 hours column
Protocol: Survival at 3 hours and 24 hours post insult. […] Doses were given at the end of the surgery, and animals were followed for 24 hours (Table 1)

[6] = target: T1, TLR4 (Mus musculus, UniProt Q9QUK6); experiment: Macrophage surface expression by antibody staining: TLR4; type: cell-based; conditions: RAW264.7 macrophages, 10 μg/ml, 30 min
T1 construct: endogenous in cells; host or cells: RAW264.7 macrophages
T1 sequence (Q9QUK6 26-835): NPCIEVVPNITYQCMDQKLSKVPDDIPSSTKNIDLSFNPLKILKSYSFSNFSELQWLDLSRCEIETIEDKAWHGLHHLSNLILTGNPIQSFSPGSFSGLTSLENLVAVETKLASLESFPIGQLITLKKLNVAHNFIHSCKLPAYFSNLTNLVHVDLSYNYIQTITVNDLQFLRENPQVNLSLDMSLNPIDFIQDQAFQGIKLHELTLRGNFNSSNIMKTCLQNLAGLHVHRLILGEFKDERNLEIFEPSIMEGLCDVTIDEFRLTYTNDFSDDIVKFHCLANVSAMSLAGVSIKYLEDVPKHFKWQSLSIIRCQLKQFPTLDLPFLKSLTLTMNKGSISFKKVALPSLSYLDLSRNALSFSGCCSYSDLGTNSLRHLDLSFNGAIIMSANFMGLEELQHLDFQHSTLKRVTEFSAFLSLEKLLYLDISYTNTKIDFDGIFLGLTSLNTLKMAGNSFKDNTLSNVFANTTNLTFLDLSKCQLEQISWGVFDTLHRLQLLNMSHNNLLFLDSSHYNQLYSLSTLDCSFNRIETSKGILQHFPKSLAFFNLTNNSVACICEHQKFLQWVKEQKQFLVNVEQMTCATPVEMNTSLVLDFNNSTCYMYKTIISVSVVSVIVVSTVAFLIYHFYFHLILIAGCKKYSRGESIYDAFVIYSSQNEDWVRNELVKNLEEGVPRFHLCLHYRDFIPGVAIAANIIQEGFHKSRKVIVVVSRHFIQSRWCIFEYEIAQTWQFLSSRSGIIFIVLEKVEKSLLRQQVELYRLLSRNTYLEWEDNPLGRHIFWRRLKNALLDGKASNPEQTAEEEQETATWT
Protocol: (§2) Effects of Glyco 23 on TLR pathway: We studied expression of macrophage CD14 and TLR4 in an in vitro model system using cultured macrophages to relate Glyco 23 mechanism of action to events upstream of cytokine gene expression. […] This observation is significant in light of very recent studies showing that CD14 inhibition using anti-CD14 antibodies in an in vivo pig model of gram-negative sepsis and endotoxemia.^(42)
(§3) Macrophages (RAW264.7) were incubated in the absence or presence of sophorolipids (SL, 10 μg/ml, 30 min, room temperature), washed with phosphate-buffered saline (PBS), and anti-CD 14 or anti-TLR4 antibodies (Santa Cruz Biotechnology, 10 μg/ml, 30 min, room temperature). The cells were then washed with PBS and staining was performed using ABC staining system (Santa Cruz Biotechnology), according to manufacturer's instructions. The cells were then fixed with 1% formaldehyde and examined microscopically. A total of 200 cells were scored in triplicate for each determination, and results expressed as % of total cells counted.

[7] = tested on: LPS-induced immunologically relevant genes in mouse macrophages; experiment: Microarray analysis of macrophages cultured with LPS +/- Glyco 23; type: cell-based; conditions: Affymetrix Murine Genome Array U74Av2; LPS maximum set as 100%
Protocol: The maximum level of each gene expression attained in the presence of LPS was set as 100%. […] The analysis was performed using the Affymetrix GeneChip® Murine Genome Array U74Av2 probe array.

[8] = target: T2, CD14 (Mus musculus, UniProt P10810); experiment: Macrophage surface expression by antibody staining: CD14; type: cell-based; conditions: RAW264.7 macrophages, 10 μg/ml, 30 min
T2 construct: endogenous in cells; host or cells: RAW264.7 macrophages
T2 sequence (P10810 16-336): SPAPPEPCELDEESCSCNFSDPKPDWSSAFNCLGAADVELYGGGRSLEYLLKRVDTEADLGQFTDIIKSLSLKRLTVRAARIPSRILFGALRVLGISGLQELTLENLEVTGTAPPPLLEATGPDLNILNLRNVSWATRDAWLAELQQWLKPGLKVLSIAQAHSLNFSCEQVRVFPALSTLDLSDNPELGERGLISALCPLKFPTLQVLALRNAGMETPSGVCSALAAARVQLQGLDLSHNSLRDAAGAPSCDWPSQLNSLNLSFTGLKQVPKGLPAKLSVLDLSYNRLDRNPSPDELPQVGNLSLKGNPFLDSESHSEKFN
Protocol: as §2, §3

[9] = tested on: galactosamine-sensitized LPS endotoxic shock; experiment: Galactosamine-sensitized LPS endotoxic shock mortality; type: in vivo, mouse
Description: Therefore, treatment after 2 hr can be compared to treatment after 24 hrs or later in conventional models.

[10] = tested on: IL-1; experiment: Cytokine responses in vitro: IL-1; type: cell-based; conditions: compared with the natural mixture responses, FIG. 5
[11] = tested on: TGF-β1; experiment: RNase Protection Assay, splenocyte mRNA of CLP-septic rats: TGF-β1; type: in vivo, rat; conditions: splenocytes at 6 hrs; percent control (CLP+vehicle) +/- SEM; P<0.05
Description: as §1

[12] = tested on: septic peritonitis via CLP; experiment: CLP model of intra-abdominal sepsis: survival / mortality; type: in vivo, rat; conditions: same CLP model, FIG. 4
Protocol: Effect of Glyco 23 on mortality in intra-abdominal sepsis. […] The CLP model was chosen for its reproducible mortality rates and its ability to mimic fecal peritonitis.
This dose is well below the LD50 (6-7 gm/kg) of naturally occurring sophorolipids in rodents.^(40,41). Doses were given at the end of the surgery, and animals were followed for 36 hours. Kaplan Meier statistics were performed on survival.

[13] = tested on: Interleukin-6 (IL-6); experiment: Serum IL-6 by ELISA 3 hrs after CLP; type: in vivo, rat; conditions: natural mixture versus free acid form, FIG. 10
Protocol: Serum samples were obtained from rats (N=5 animals/group) 3 hrs. after (CLP) to establish polymicrobial sepsis, and intravenous injection of saline (control), sophorolipids-natural mixture (SL) or Glyco 23. Serum concentrations of Interleukin-6 (IL-6) were determined using commercial ELISA tests according to manufacturer's instructions. Results were evaluated for statistical significance using ANOVA.

CCOC(=O)CCCCCCC/C=C\CCCCCCC(C)OC1O[C@H](CO)[C@@H](O)[C@H](O)[C@H]1OC1O[C@H](CO)[C@@H](O)[C@H](O)[C@H]1O (relative stereo) [Glyco 23, Ethyl-17-L-[(2′-O-D-glucopyranosyl-D-glucopyranosyl)-oxy]-cis-9-octadecenoate]
IL-8 cytokine response suppression [1]: decreased
time to death of all rats [2]: ≤ 2 h
antibiotic activity [3]: no significant antibiotic activity
reduction in IL-1β expression (mRNA) [4]: 42.5%±4.7%
Survival % 3 hours post insult [5]: 100%
Survival 24 Hs. post insult [5]: 100%
surface expression of TLR4 [6]: interferes with surface expression
expression of genes upregulated more than 5 fold by LPS [7]: suppressed
surface expression of CD14 [8]: interferes with surface expression
Mortality (%) ([9]; LPS at 0 hs, Glyco at 0 hs, n = 9): 89%
Mortality (%) ([9]; LPS at 0 hs, Glyco at 1.5 hs, n = 10): 30%
Mortality (%) ([9]; LPS at 1.5 hs, Glyco at 0 hs, n = 10): 80%
decrease of endotoxin mortality ([9]; administered 2 hr after insult, versus positive control mice): 56%
IL-1 cytokine response suppression [10]: decreased
increased expression of TGF-β1 (mRNA) [11]: 11.7±1.5%
Mortality rate reduced compared to vehicle [12]: 37%

CC(CCCCCC/C=C\CCCCCCCC(=O)O)O[C@@H]1O[C@H](CO)[C@@H](O)[C@H](O)[C@H]1O[C@@H]1O[C@H](CO)[C@@H](O)[C@H](O)[C@H]1O (relative stereo) [Sohorolipid Free Acid derivative, 17-L-[(2′-O-b-D-glucopyranosyl-b-D-glucopyranosyl)-oxy]-cis-9-octadecenoatede-acetylated free acid]
Survival % 3 hours post insult [5]: 100%
Survival 24 Hs. post insult [5]: 90%
difference between the inhibitory effects on serum IL-6 [13]: No significant difference

Lipid A [reference compound]
Survival % 3 hours post insult [5]: 50%
Survival 24 Hs. post insult [5]: 32%
